Assay results taken from patent publication US20190314196A1, “Topical Ocular Delivery Methods and Devices for Use in the Same” (Kedalion Therapeutics, Inc., priority 2018, published 2019).

What was measured:
Type in all cases: in vivo, human
[1] = test system: patients diagnosed with primary open angle glaucoma; assay: Trial 2: intraocular pressure reduction, Goldmann applanation tonometry; details: for Post-treatment IOP, Mean: 0.005% w/v, N=18 eyes; for Post-treatment IOP, Mean / average decrease in IOP measured per patient / Post-treatment IOP, Median: approx. 8 hours after dosing; for Post-treatment IOP, Median: baseline median 18.0; for Total pressure reduction, Mean / Total pressure reduction, Median: signed change from baseline
Experimental: Trial 2 compared the efficacy (dose volume equivalence) of 0.005% w/v latanoprost for intraocular pressure reduction when delivered via AcuStream™ (pre-trial calibration volume=9.2 μl) versus the standard eye dropper for topical drug delivery (approximate volume=30 μl).
Patients included in Trial 2 have previously been diagnosed with primary open angle glaucoma on the basis of intraocular pressure and visual field testing, fundus examination or optical coherence tomography (OCT) data and are currently on prostaglandin analog medical therapy. Patients with corneal abnormalities that would interfere with accurate IOP measurements with applanation tonometry, use of an oral or topical ophthalmic steroids within the past 14 days from screening date, any active ocular surface or anterior segment disease, or progressive field loss during the past year were excluded from the study. Thirteen men and five women participated in the trial.
Recruited patients were taken off medical therapy for a period of 3-4 weeks prior to the study to allow drug “wash out”, thereby elevating their IOPs to pre-treatment levels which was confirmed by examination of the patients' chart history. Patients were randomly assigned as “test” (AcuStream™), or “control” (standard eye dropper). The mean age of the control group and test group were 61.0 years and 65.2 years, respectively.
The patients assigned to either the “test” or “control” group by means of a random numbers table in order to mitigate any potential cross-over effects that could confound data interpretation. An odd number dictated that the patient was in the test group, while even-numbered patients were in the control group.
After performing slit lamp examinations on each patient to verify eligibility and obtaining informed consent, intraocular pressure (IOP) was measured by a sole experienced examiner who was blind to the randomized conditions. A pre-calibrated Goldmann applanation tonometer coupled to a Haag-Streit 900 EQ slit lamp was used to conduct baseline IOP measurements. Once baseline IOP data were verified to be equivalent to pre-medical therapy levels (based on patient's treatment history), the patient then continued to the dosing stage of the study.
Latanoprost solution was administered by a sole ophthalmologist to both eyes of each patient, based on the pre-determined randomized condition.

eye of subjects [2] = assay: Presbyopia: near visual acuity, Snellen card at 40 cm; details: 45 to 60 minutes after dosing
Experimental: (§1) A 10 μl micro-dose of a 1% pilocarpine solution was self-administered using an electromagnetic actuated fluid delivery device, e.g., as described above, by three subjects to their own eye. The age range of the subjects was 52 years to 68 years, and all subjects were male. The pilocarpine micro-dose was self-administered by the subjects.
(§2) Baseline, pre-dose values of pupil diameter and near visual acuity in both eyes prior to dosing was measured for all subjects, and then following the baseline measurements, the subjects were dosed in only one eye (the eye with the poorer visual acuity) with the micro-dose pilocarpine solution. Approximately 45 to 60 minutes after dosing, pupil diameter and near visual acuity were again tested. Near visual acuity was measured using a Snellen card at a distance of 40 cm. A tabulation of results is given below in Table A.

eye of subjects [3] = assay: Presbyopia: pupil diameter after self-administered pilocarpine micro-dose
Experimental: as §1, §2

[4] = standard eye dropper control group

SMILES: CC(C)OC(=O)CCC/C=C\C[C@@H]1[C@@H](CC[C@@H](O)CCc2ccccc2)[C@H](O)C[C@@H]1O [latanoprost]
- difference in IOP reduction between groups ([1]; AcuStream 9.2 μl versus standard eye dropper 30 μl): no statistically significant differences
- Post-treatment IOP, Mean ([1]; AcuStream test group, 9.2 μl, baseline 18.6): 13.6 mm Hg
- average decrease in IOP measured per patient ([1]; AcuStream test group): 5.0 mm Hg
- Post-treatment IOP, Median ([1]; AcuStream test group): 13.0 mm Hg
- Total pressure reduction, Mean ([1]; AcuStream test group): −5.0 mm Hg
- Total pressure reduction, Median ([1]; AcuStream test group): −5.0 mm Hg
- post-instillation IOP (OD), single patient outlier ([1]; control group, baseline IOP 30 mm Hg): 17 mm Hg
- equivalence of 9.2 μl AcuStream dose to 30 μl standard eye drop, intraocular pressure reduction ([1]; latanoprost 0.005% w/v): pharmacodynamic equivalence
- Post-treatment IOP, Mean ([1]; standard eye dropper control group, approx. 30 μl, baseline 17.7): 13.3 mm Hg
- average decrease in IOP measured per patient [1, 4]: 4.3 mm Hg
- Post-treatment IOP, Median [1, 4]: 12.0 mm Hg
- Total pressure reduction, Mean [1, 4]: −4.3 mm Hg
- Total pressure reduction, Median [1, 4]: −4.0 mm Hg

SMILES: CC[C@@H]1C(=O)OC[C@@H]1Cc1cncn1C [pilocarpine]
- Median dosed eye near visual acuity (eye of subjects [2]; baseline median 20/30): 20/20
- # of lines change in visual acuity (mean improvement) (eye of subjects [2]; dosed eye, 3 subjects): 2 lines
- Mean change in dosed pupil dia (eye of subjects [3]; dosed eye, 10 μl micro-dose of 1% solution, 45 to 60 minutes after dosing, 3 subjects): −0.7 mm
- Mean post-dose pupil dia (eye of subjects [3]; dosed eye, 10 μl micro-dose of 1% solution, 45 to 60 minutes after dosing, 3 subjects, baseline mean 2.9 mm): 2.2 mm
- mean reduction in pupil diameter (eye of subjects [3]; dosed eye, 10 μl micro-dose of 1% solution, all subjects): 0.70 mm
- miotic effect in non-dosed eye (eye of subjects [3]; non-dosed contralateral eye): no miotic effect
- Mean change in non-dosed pupil dia (eye of subjects [3]; non-dosed contralateral eye, 45 to 60 minutes after dosing): 0.2 mm
- Mean non-dose pupil dia (eye of subjects [3]; non-dosed contralateral eye, 45 to 60 minutes after dosing, baseline mean 2.8 mm): 3.0 mm
